Results from patent US6313179A, “Treatment of hyperproliferative skin disorders with C18 to C20 aliphatic alcohols” (Avanir Pharmaceuticals, priority 1998, dated 2001).
Where “and” joins values, the source holds several entries; their conditions need not be identical. Identical values can stand only once. Entries after “also recorded” stand apart in the source; their conditions may differ. Like-named read-outs stand apart in the source and are kept apart here.

Legend:
herpes simplex virus = settings: suspended in a surfactant; cell culture assays; cited from earlier work
Human keloid fibroblasts = assay: Antiproliferative activity of n-docosanol in keloid cells (Example 1, viable cell count); assay type: cell-based; settings: 15 mM; for inhibition of keloid cell growth in vitro (in words): cultured keloid / hypertrophic fibroblasts; for activity at 15000 µM / cells/well: Table 1; for activity at 15000 µM: compared to cells incubated with no addition, read-out: % control
Experimental: (§1) Human keloid fibroblasts were obtained from the American Type Culture Collection (Rockville, Md.) (CRL 1762). n-Docosanol (300 mM) was suspended in the nonionic surfactant Pluronic F-68 (12 mM) as described previously (Katz et al., Proc. Natl. Acad. Sci. U.S.A., 88:10825-10829, 1991, hereby incorporated by reference). A vehicle control was prepared using the same procedure except n-docosanol was omitted. Keloid cells (2.7×10^4per well) were added to 16 mm wells containing DMEM supplemented with 10% fetal calf serum (FCS), sodium pyruvate, L-glutamine and penicillin/streptomycin. n-Docosanol (15 mM) or the corresponding Pluronic F-68 control (0.6 mM) was added (total volume=2.0 ml). Cells were harvested after incubation for 72 and 168 hours at 37° C. in a humidified 10% CO2 incubator. The number of viable cells was determined by trypan blue staining.

keloid scarring = assay: Treatment of keloid scar formation with n-docosanol cream, case report (Example 4); assay type: in vivo, Human
Excerpt: The patient presented with a one year history of progressive bilateral facial keloid scarring. The precise cause of injury is unknown, but appears to have been initiated as a result of work-relatedexposure to some aerosolized irritant at a high rise building construction site. During the time of exposure, the patient was working in an area in which noxious fumes were known to exist, and they were wearing a filtration face mask for protection against inhalation exposure. Since the resulting wounds occurred in a pattern which appeared to outline the edges of the protective face mask, the injury may reflect some type of chemical burn resulting from concentration of aerosolized irritants with perspiration at the edge of the face mask.
During the ensuing year after onset of this process, the patient was seen on several occasions in the dermatology division of a major local hospital and attempts were made to arrest the process by intradermal steroid injections at the affected sites. This treatment approach was ineffective. When the patient was first seen by the inventors, they had extensive and disfiguring bilateral scars on the face and a large ulcerated lesion at the lower end of the process on the right side of the face. There was keloid scarring on both the right and left sides of the face manifested as typical "ropey and cord-like" tissue deposition and depigmentation. The right side of the face was noticeably swollen presumably as a result of the active ulceration process at the lower end of the lesions. The patient complained of pain along both areas of scarring, particularly at the more distal ends of the lesions. They admitted to social withdrawal as a result of embarrassment about their appearance and extreme frustration about the apparent futility of obtaining any help to arrest or reverse the process.
After thoroughly explaining the experimental aspects of the therapeutic regimen, the patient volunteered to enter a study in which cream containing either 15% or 10% n-docosanol as active ingredient was to be applied to the affected areas. These topical cream formulations are described in U.S. Pat. No. 5,534,554, the entire contents of which are incorporated by reference. Initially, applications of cream containing 15% n-docosanol were made three times daily. This cream formulation contained, in addition to 15% n-docosanol, […], 5.0% sucrose cocoate, 8.0% mineral oil NF, 5.0% propylene glycol USP, 2-ethyl-1,3-hexanediol and 58.3% purified water (all weight percent). After one month on this regimen, the patient was changed to cream containing 10% n-docosanol and the application frequency was reduced to two times daily, after showering in the morning and just before bed in the evening. This cream composition contained, in addition to 10% n-docosanol,5.0% sucrose stearates, 8.0% mineral oil NF, 5.0% propylene glycol USP, 2.7% benzyl alcohol NF and 69.3% purified water.

[1] = concentrations up to 300 mM; cited from earlier work
[2] = test system: respiratory syncytial virus; settings: suspended in a surfactant; cell culture assays; cited from earlier work
[3] = test system: Human fetal lung cells (HFL; ATCC CCL 153); assay: Comparison of n-docosanol effect between keloid and normal cells: human fetal lung cells (Example 2); assay type: cell-based; settings: 15 mM; for activity at 15000 µM: Homo sapiens, compared to cells incubated with no addition, read-out: % control; for activity at 15000 µM / cells/well: Table 3
Experimental: as §1
Human fetal lung cells (HFL; ATCC CCL 153) and keloid cells (5×10^4 cells/well) were separately added to 16 mm wells and treated as described in Example 1. The results are shown in Tables 2 (keloid cells) and 3 (human fetal lung cells).

[4] = test system: cutaneous Kaposi's sarcoma; assay: Treatment of Kaposi's sarcoma with 10% n-docosanol cream (Example 6); assay type: in vivo, Human; settings: 10% cream
Experimental: HIV-positive male patients presenting with treatment-resistant cutaneous Kaposi's sarcoma were treated for 28 days, 5 times daily with the 10% n-docosanol cream formulation described in Example 4. Response to treatment was evaluated according to lesion dimensions, color of the lesion and the type of lesion (hard, soft or nodule). The data were recorded on intermittent days throughout the 28 days of the study and values were compared to baseline observations made on Day 1. Three target lesions were evaluated in each patient. Thus far, five patients have completed the study.

[5] = 15% cream three times daily, within 48 hours
[6] = 15% cream, by the end of the second week, patient perception
[7] = one patient, Day 15 and thereafter

Structure (SMILES): CCCCCCCCCCCCCCCCCCCCCCO [n-docosanol]
- antiviral activity (herpes simplex virus): potent antiviral activity
- inhibition of keloid cell growth in vitro (in words) (Human keloid fibroblasts): favored by low cell densities and longer incubation times and is concentration-dependent; also recorded: dramatic inhibition of keloid cell growth
- inhibition of keloid cell growth in vitro (in words) (Human keloid fibroblasts; listed as n-Docosanol): exhibits antiproliferative activity against cultured hypertrophic fibroblasts
- inhibition at 15000 µM (Human keloid fibroblasts; Homo sapiens, Fibroblast, 168 hours, compared to no addition, read-out: inhibition of cell growth): 76%
- activity at 15000 µM (Human keloid fibroblasts; Homo sapiens, Fibroblast, 72 hours): 103%
- activity at 15000 µM (Human keloid fibroblasts; Homo sapiens, Fibroblast, 168 hours): 24%
- cells/well (Human keloid fibroblasts; 72 hours): 3.3 × 10^4 cells/well
- cells/well (Human keloid fibroblasts; 168 hours): 1.0 × 10^4 cells/well
- extent of elevation of the keloid scarring (keloid scarring; 15% cream one month, then 10% cream twice daily, three months): clear reduction in the extent of elevation of the keloid scarring
- pain around the lesions (keloid scarring; 15% cream three times daily, almost immediately after onset of therapy): significant diminution in pain
- granulation within the ulcerated lesion (keloid scarring; [5]): onset of granulation
- swelling on the right side of the face (keloid scarring; [5]): significant reduction in swelling
- suppleness of the overlying dermis (keloid scarring; [6]): greater suppleness of the overlying dermis
- tightness and thickness of the keloids (keloid scarring; [6]): diminution in tightness and thickness of the keloids
- pigmentation in the affected areas (keloid scarring; 15% then 10% cream, one year): almost complete return to normal pigmentation
- ropey and cord-like elevations (keloid scarring; 15% then 10% cream, one year): a flattening of the previously ropey and cord-like elevations
- scar tissue (keloid scarring; 15% then 10% cream, one year): significant reduction of scar tissue
- skin pigmentation (keloid scarring; 15% then 10% cream, three months): considerable improvement in skin pigmentation
- scar defect at the site of the healed ulcerated lesion (keloid scarring; 15% then 10% cream, three months, compared to right temple line scar): much smaller scar defect
- adverse reactions (keloid scarring; during the course of treatment): no adverse reactions
- keloid formation in a patient (in words) (keloid scarring; patient for whom other treatments had not been successful): significantly reduced hyperproliferative keloid formation
- cytotoxicity [1]: not cytotoxic in concentrations up to 300 mM
- antiviral activity [2]: potent antiviral activity
- number of human fetal lung cells (in words) ([3]; at both time intervals (72 and 168 hours)): significantly increased
- activity at 15000 µM ([3]; 72 hours): 116%
- activity at 15000 µM ([3]; 168 hours): 250%
- cells/well ([3]; 72 hours): 5.8 × 10^4 cells/well
- cells/well ([3]; 168 hours): 20 × 10^4 cells/well
- patients with a response (reduction in the size of the lesions) ([4]; Day 28 vs Day 1): three out of five
- lesions with reduction in size, two patients ([4]; Day 28 vs Day 1, each of two patients): 3 out of 3
- lesions with reduction in size, one patient ([4]; Day 28 vs Day 1, one patient): 2 out of 3
- color changes in lesions ([4]; all five patients, all lesions): color changes in all lesions to a lighter color
- increase in lesion size ([4]; any of the 15 lesions studied): not observed
- disappearance of lesion ([4]; by Day 3, one lesion): One lesion completely disappeared by Day 3
- clinically observed swelling [4, 7]: decrease in the clinically observed swelling
- pain of lesions [4, 7]: less painful
- Day 28 Color ([4]; Table 5, 5 times daily, 28 days, per patient and lesion): pale and gone and pale pink and very pale and pink and tan and lighter
- percent reduction in lesion size ([4]; Table 5, Day 28 vs Day 1, 5 times daily, per patient and lesion): 75% and gone and 74% and 19% and 20% and 0% and 28% and 10%
